# Experimental data published in patent publication US9770026B2, “Substituted pyrimidine compound and uses thereof” (Shenyang Sinochem Agrochemicals R&D Co., Ltd., priority 2012, dated 2017).
# Legend:
# rice blast = test: microbe, parasite or virus in culture; type: cell-based; conditions: for inhibition at 25 ppm / inhibition at 0.1 ppm / inhibition at 0.3 ppm / inhibition at 0.9 ppm / inhibition at 2.8 ppm / inhibition at 8.3 ppm: Pyricularia oryzae; for inhibition at 25 ppm: read-out: inhibition rate against rice blast, 25 ppm, in vitro; for inhibition rate against rice blast: in vitro; for inhibition at 0.1 ppm: read-out: inhibition rate against rice blast, 0.1 ppm, in vitro; for inhibition at 0.3 ppm: read-out: inhibition rate against rice blast, 0.3 ppm, in vitro; for inhibition at 0.9 ppm: read-out: inhibition rate against rice blast, 0.9 ppm, in vitro; for inhibition at 2.8 ppm: read-out: inhibition rate against rice blast, 2.8 ppm, in vitro; for inhibition at 8.3 ppm: read-out: inhibition rate against rice blast, 8.3 ppm, in vitro
# corn rust = test: protectant activity in vivo against corn rust; conditions: for pest or weed control at 400 ppm: read-out: protectant activity against corn rust in vivo, 400 ppm
# [1] = system: Green peach aphids (Myzus Persicae Sulzer); test: bioactivity test against green peach aphid, airbrush foliar spray; type: in vivo; conditions: for Insecticidal activity against peach aphid (%): contrastive test
# Outline: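 Aphids (15-30 per cabbage leaf disc) on moist filter paper were airbrush-sprayed at 10 psi, 0.5 mL, with compound from acetone:methanol (1:1) diluted in water with 0.1% tween 80. Held at 25±1 C, 60±5% RH; survivors counted after 48 hrs to give death rates.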
# carmine spider mite = test: bioactivity test against carmine spider mite, airbrush spray; type: in vivo; conditions: for pest or weed control at 100 ppm / pest or weed control at 600 ppm: Tetranychus cinnabarinus, 72 h; for pest or weed control at 100 ppm / pest or weed control at 600 ppm / control against carmine spider mite: mortality after 72 hrs
# Outline: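 Broadbean seedlings infested with adult mites were sprayed with compound (acetone/methanol stock diluted in 0.1% Tween 80 water) by airbrush at 0.7 kg/cm^2, 0.5 ml. Three replicates were run. Mortality was scored after 72 hrs.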
# wheat powdery mildew = test: protectant activity in vivo against wheat powdery mildew; conditions: for pest or weed control at 400 ppm: read-out: protectant activity against wheat powdery mildew in vivo, 400 ppm; for pest or weed control at 100 ppm: read-out: protectant activity against wheat powdery mildew in vivo, 100 ppm; for control effect against wheat powdery mildew (%): protectant activity
# cucumber downy mildew = test: protectant activity in vivo against cucumber downy mildew; conditions: for pest or weed control at 400 ppm: Cucumis sativus, 168 h, read-out: protectant activity against cucumber downy mildew in vivo, 400 ppm
# armyworm = test: bioactivity test against armyworm, airbrush spray; type: in vivo; conditions: for control (test results against armyworm): mortality after 72 h
# Diamond back moth = test: insecticidal activity against diamond back moth, airbrush spray; type: in vivo; conditions: for control (test results against diamond back moth): mortality after 72 hrs
# Outline: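 Airbrush leaf-disc spray test: both faces of 2 cm cabbage discs received 0.5 ml of test solution at 0.7 kg/cm^2. Solutions were made in acetone:methanol (1:1) and brought to concentration with 0.1% Tween 80 in water. Ten second-instar larvae per disc, triplicates, were held at 25° C and 60˜70% R.H., with mortality recorded at 72 hrs.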
# [2] = Myzus persicae, foliar, 48 h, 600 ppm, death rate after 48 hrs
# [3] = Myzus persicae, foliar, 48 h, 100 ppm, death rate after 48 hrs
structure (smiles),measurement,setting,value
CCc1nc(C)nc(NCCc2ccc(Oc3ccc(C#N)cn3)cc2)c1Cl [Compound I-6795],inhibition at 25 ppm,rice blast,80 to 99%
same,pest or weed control at 400 ppm,"corn rust; Zea mays, 168 h",100%
same,pest or weed control at 600 ppm,[1]; [2],100%
same,pest or weed control at 100 ppm,carmine spider mite; 100 ppm,100%
same,pest or weed control at 600 ppm,carmine spider mite; 600 ppm,100%
same,pest or weed control at 400 ppm,"wheat powdery mildew; Triticum aestivum, 168 h",100%
FC(F)(F)c1ccc(Oc2ccc(CCNc3ncnc(CCl)c3Cl)cc2)nc1 [Compound I-2922],inhibition rate against rice blast,rice blast; 0.1 ppm,100%
same,inhibition rate against rice blast,rice blast; 0.3 ppm,100%
same,inhibition rate against rice blast,rice blast; 0.9 ppm,100%
same,inhibition rate against rice blast,rice blast; 2.8 ppm,100%
same,inhibition rate against rice blast,rice blast; 8.3 ppm,100%
same,protectant activity against corn rust in vivo,corn rust; 100 ppm,100%
same,protectant activity against corn rust in vivo,corn rust; 400 ppm,100%
Cc1ncnc(NCCc2ccc(Oc3ncc(C(F)(F)Cl)cc3Cl)cc2)c1Cl [Compound I-483],inhibition at 0.1 ppm,rice blast,100%
same,inhibition at 0.3 ppm,rice blast,100%
same,inhibition at 0.9 ppm,rice blast,100%
same,inhibition at 2.8 ppm,rice blast,100%
same,inhibition at 8.3 ppm,rice blast,100%
same,inhibition at 25 ppm,rice blast,100%
same,pest or weed control at 400 ppm,cucumber downy mildew,100%
same,pest or weed control at 400 ppm,"corn rust; Zea mays, 168 h",100%
same,pest or weed control at 100 ppm,[1]; [3],100%
same,pest or weed control at 600 ppm,[1]; [2],100%
same,pest or weed control at 100 ppm,carmine spider mite; 100 ppm,80 to 99%
same,pest or weed control at 600 ppm,carmine spider mite; 600 ppm,100%
same,pest or weed control at 100 ppm,"wheat powdery mildew; Triticum aestivum, 168 h",80 to 99%
same,pest or weed control at 400 ppm,"wheat powdery mildew; Triticum aestivum, 168 h",80 to 99%
"Cc1c(Cl)c(NCCc2ccc(Oc3ccc(C(F)(F)F)cn3)cc2)nc[n+]1CC(=O)c1ccc(Cl)cc1 [CK49, reference compound]",pest or weed control at 600 µg/mL,"armyworm; 72 h, 600 mg/L, read-out: Insecticidal activity against armyworm (%)",17%
same,inhibition at 8.3 ppm,rice blast,0%
same,inhibition at 25 ppm,rice blast,< 50%
same,pest or weed control at 6.25 µg/mL,"corn rust; Zea mays, 168 h, read-out: control effect against corn rust (%), 6.25 mg/L, protectant activity",0%
same,pest or weed control at 25 µg/mL,"corn rust; Zea mays, 168 h, read-out: control effect against corn rust (%), 25 mg/L, protectant activity",0%
same,pest or weed control at 100 µg/mL,"corn rust; Zea mays, 168 h, read-out: control effect against corn rust (%), 100 mg/L, protectant activity",30%
same,pest or weed control at 400 µg/mL,"corn rust; Zea mays, 168 h, read-out: control effect against corn rust (%), 400 mg/L, protectant activity",85%
Cc1ncnc(NCCc2ccc(Oc3c(Cl)cc([N+](=O)[O-])cc3Cl)cc2)c1Cl [II-165],inhibition at 0.1 ppm,rice blast,100%
same,inhibition at 0.3 ppm,rice blast,100%
same,inhibition at 0.9 ppm,rice blast,100%
same,inhibition at 2.8 ppm,rice blast,100%
same,inhibition at 8.3 ppm,rice blast,100%
same,inhibition at 25 ppm,rice blast,100%
same,pest or weed control at 100 ppm,"corn rust; Zea mays, 168 h, read-out: protectant activity against corn rust in vivo, 100 ppm",80 to 99%
same,pest or weed control at 400 ppm,"corn rust; Zea mays, 168 h",100%
same,pest or weed control at 600 ppm,carmine spider mite; 600 ppm,80 to 99%
CCc1nc(C)nc(NCCc2ccc(Oc3ncccc3C(F)(F)F)cc2)c1Cl [Compound I-6793],inhibition at 25 ppm,rice blast,80 to 99%
same,pest or weed control at 400 ppm,cucumber downy mildew,80 to 99%
same,pest or weed control at 400 ppm,"corn rust; Zea mays, 168 h",100%
same,pest or weed control at 10 ppm,"[1]; Myzus persicae, foliar, 48 h, 10 ppm, death rate after 48 hrs",80 to 99%
same,pest or weed control at 100 ppm,[1]; [3],100%
same,pest or weed control at 600 ppm,[1]; [2],100%
same,pest or weed control at 25 ppm,"wheat powdery mildew; Triticum aestivum, 168 h, read-out: protectant activity against wheat powdery mildew in vivo, 25 ppm",100%
same,pest or weed control at 100 ppm,"wheat powdery mildew; Triticum aestivum, 168 h",100%
same,pest or weed control at 400 ppm,"wheat powdery mildew; Triticum aestivum, 168 h",100%
CCc1ncnc(NCCc2ccc(Oc3ccc(C#N)cc3F)cc2)c1Cl [II-482],Insecticidal activity against armyworm (%),armyworm; 10 mg/L,80%
same,Insecticidal activity against armyworm (%),armyworm; 100 mg/L,100%
same,Insecticidal activity against armyworm (%),armyworm; 600 mg/L,100%
same,control (test results against armyworm),armyworm; 100 ppm,100%
same,control (test results against armyworm),armyworm; 600 ppm,100%
same,protectant activity against cucumber downy mildew in vivo,cucumber downy mildew; 25 ppm,100%
same,protectant activity against cucumber downy mildew in vivo,cucumber downy mildew; 50 ppm,100%
same,protectant activity against cucumber downy mildew in vivo,cucumber downy mildew; 100 ppm,100%
same,protectant activity against cucumber downy mildew in vivo,cucumber downy mildew; 400 ppm,100%
same,control effect against corn rust (%),"corn rust; 6.25 mg/L, protectant activity",100%
same,control effect against corn rust (%),"corn rust; 25 mg/L, protectant activity",100%
same,control effect against corn rust (%),"corn rust; 100 mg/L, protectant activity",100%
same,control effect against corn rust (%),"corn rust; 400 mg/L, protectant activity",100%
same,protectant activity against corn rust in vivo,corn rust; 6.25 ppm,100%
same,protectant activity against corn rust in vivo,corn rust; 25 ppm,100%
same,protectant activity against corn rust in vivo,corn rust; 100 ppm,100%
same,protectant activity against corn rust in vivo,corn rust; 400 ppm,100%
same,Insecticidal activity against peach aphid (%),[1]; 1.25 mg/L,100%
same,Insecticidal activity against peach aphid (%),[1]; 2.5 mg/L,100%
same,Insecticidal activity against peach aphid (%),[1]; 5 mg/L,100%
same,Insecticidal activity against peach aphid (%),[1]; 10 mg/L,100%
same,Insecticidal activity against peach aphid (%),[1]; 100 mg/L,100%
same,Insecticidal activity against peach aphid (%),[1]; 600 mg/L,100%
same,control (test results against green peach aphid),"[1]; 2.5 ppm, death rate after 48 hrs",100%
same,control (test results against green peach aphid),"[1]; 5 ppm, death rate after 48 hrs",100%
same,control (test results against green peach aphid),"[1]; 10 ppm, death rate after 48 hrs",100%
same,control (test results against green peach aphid),"[1]; 100 ppm, death rate after 48 hrs",100%
same,control (test results against green peach aphid),"[1]; 600 ppm, death rate after 48 hrs",100%
same,Insecticidal activity against carmine spider mite (% ),carmine spider mite; 2.5 mg/L,93%
same,Insecticidal activity against carmine spider mite (% ),carmine spider mite; 5 mg/L,100%
same,Insecticidal activity against carmine spider mite (% ),"carmine spider mite; 10 mg/L, contrastive test",100%
same,Insecticidal activity against carmine spider mite (% ),"carmine spider mite; 100 mg/L, contrastive test",100%
same,Insecticidal activity against carmine spider mite (% ),"carmine spider mite; 600 mg/L, contrastive test",100%
same,control against carmine spider mite,carmine spider mite; 5 ppm,100%
same,control against carmine spider mite,carmine spider mite; 10 ppm,100%
same,control against carmine spider mite,carmine spider mite; 100 ppm,100%
same,control against carmine spider mite,carmine spider mite; 600 ppm,100%
same,control effect against wheat powdery mildew (%),wheat powdery mildew; 6.25 mg/L,98%
same,control effect against wheat powdery mildew (%),wheat powdery mildew; 25 mg/L,100%
same,control effect against wheat powdery mildew (%),wheat powdery mildew; 100 mg/L,100%
same,control effect against wheat powdery mildew (%),wheat powdery mildew; 400 mg/L,100%
same,protectant activity against wheat powdery mildew in vivo,wheat powdery mildew; 25 ppm,100%
same,protectant activity against wheat powdery mildew in vivo,wheat powdery mildew; 100 ppm,100%
same,protectant activity against wheat powdery mildew in vivo,wheat powdery mildew; 400 ppm,100%
same,Insecticidal activity against diamond back moth (%),Diamond back moth; 10 mg/L,60%
same,Insecticidal activity against diamond back moth (%),Diamond back moth; 100 mg/L,100%
same,Insecticidal activity against diamond back moth (%),Diamond back moth; 600 mg/L,100%
same,control (test results against diamond back moth),Diamond back moth; 100 ppm,100%
same,control (test results against diamond back moth),Diamond back moth; 600 ppm,100%
